Results from ChEMBL document CHEMBL5729087, “Pyranopyrazole and pyrazolopyridine immunomodulators for treatment of autoimmune diseases” (2022).

Assays:
Coagulation factor XII = biological target: T1, Coagulation factor XII (Homo sapiens, UniProt P00748); test: Factor XIIa (FXIIa) Inhibitory Activity: In a 96-well clear bottom plate, 80 μl of assay buffer was added to each well. Assay buffer consists of 0.5× Hank's Balanced Salt Solution (Invitrogen), buffered with 25 mM HEPES pH 7.4 (Invitrogen) and 0.5× Tris-buffered saline with Tween-20 0.05% (Santa Cruz Biotechnology). Test compounds were first dissolved in DMSO (Sigma) and then 4 μl were added to test wells containing assay buffer. Serial dilutions using an automated multi-channel pipette were used to generate a concentration range of approximately 1-100 μM. Human FXIIa (Enzyme Research Labs) was diluted in assay buffer to a final concentration of 12.5 nM. 80 μl of this enzyme solution was added to the assay wells. The enzyme/compound mixtures were incubated for 10 minutes at room temperature. Chromogenic substrate (Pefachrome XIIa; Enzyme Research Labs) was added to assay wells at a final concentration of 400 μM. The assay plate was spun for 1 minute at 1500 g and then read at 37° C. in a SpectraMax M2 plate reader (λ=405 nm). Activity was quantified as the rate of change in absorbance, which corresponds to the rate of substrate cleavage. IC50 values were determined as the concentration of inhibitor that produced 50% of the rate of change of control wells without any inhibitor. For compounds with activity <1 μM, the assay was repeated with a lower concentration range, typically from 10-1000 nM.
T1 sequence (P00748 whole entry): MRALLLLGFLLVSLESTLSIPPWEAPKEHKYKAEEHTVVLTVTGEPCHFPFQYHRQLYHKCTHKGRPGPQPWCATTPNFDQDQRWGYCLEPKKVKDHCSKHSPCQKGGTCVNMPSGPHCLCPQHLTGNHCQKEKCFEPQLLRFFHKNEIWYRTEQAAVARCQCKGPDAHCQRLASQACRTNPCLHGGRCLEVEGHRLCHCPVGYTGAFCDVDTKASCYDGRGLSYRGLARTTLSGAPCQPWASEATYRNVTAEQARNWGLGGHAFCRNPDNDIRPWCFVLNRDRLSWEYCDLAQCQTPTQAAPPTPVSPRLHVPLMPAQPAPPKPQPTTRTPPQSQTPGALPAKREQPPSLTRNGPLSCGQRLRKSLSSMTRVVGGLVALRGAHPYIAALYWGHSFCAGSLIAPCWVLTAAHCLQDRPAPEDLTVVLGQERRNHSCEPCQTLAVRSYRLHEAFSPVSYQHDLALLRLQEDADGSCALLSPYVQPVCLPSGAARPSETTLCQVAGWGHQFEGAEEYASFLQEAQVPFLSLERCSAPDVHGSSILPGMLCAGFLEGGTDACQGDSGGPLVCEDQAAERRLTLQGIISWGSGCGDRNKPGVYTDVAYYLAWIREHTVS

Prothrombin = Prothrombin (Homo sapiens, UniProt P00734); test: Counterscreens for Selectivity: Thrombin. In a 96-well white opaque plate, 80 μl of assay buffer was added to each well. Test compounds were added, and serially diluted as above, to generate a concentration range of approximately 1-100 μM. Human alpha-thrombin (Enzyme Research Labs) was diluted in assay buffer to a final concentration of 12.5 nM. 80 μl of this enzyme solution was added to the assay wells. The enzyme/compound mixtures were incubated for 10 minutes at room temperature. Fluorogenic substrate (Boc-Val-Pro-Arg-7-amido-4-methylcoumarin; Sigma) was added to assay wells at a final concentration of 20 μM. The assay plate was spun for 1 minute at 1500 g and then read at 37° C. in a SpectraMax M2 plate reader (λex=380 nm and λem=460 nm). Activity was quantified as the rate of change in fluorescence, which corresponds to the rate of substrate cleavage. IC50 values were determined as the concentration of inhibitor that produced 50% of the rate of change of control wells without any inhibitor. For compounds with activity <1 μM, the assay was repeated with a lower concentration range, typically from 10-1000 nM.

Row | IC50 (Coagulation factor XII) [µM] | IC50 (Prothrombin) [µM] | Structure (SMILES)
1 | 0.25 | > 75 | CN(C)S(=O)(=O)N1CCc2c(nn(C(=O)C3CCNc4ccccc43)c2N)C1 (stereo not given)
2 | 0.15 | > 150 | Cc1cc2c(C(=O)n3nc4c(c3N)CCNC4)cccc2[nH]1
3 | 60 |  | CC(C)N1CCc2c(N)nn(C(=O)C3CCNc4ccc(F)cc43)c2C1 (stereo not given)
